Biological target: Vascular endothelial growth factor receptor 2 (Homo sapiens, UniProt P35968)
Experiment: Inhibition of KDR (unknown origin)

Sequence of Vascular endothelial growth factor receptor 2 (P35968 whole entry): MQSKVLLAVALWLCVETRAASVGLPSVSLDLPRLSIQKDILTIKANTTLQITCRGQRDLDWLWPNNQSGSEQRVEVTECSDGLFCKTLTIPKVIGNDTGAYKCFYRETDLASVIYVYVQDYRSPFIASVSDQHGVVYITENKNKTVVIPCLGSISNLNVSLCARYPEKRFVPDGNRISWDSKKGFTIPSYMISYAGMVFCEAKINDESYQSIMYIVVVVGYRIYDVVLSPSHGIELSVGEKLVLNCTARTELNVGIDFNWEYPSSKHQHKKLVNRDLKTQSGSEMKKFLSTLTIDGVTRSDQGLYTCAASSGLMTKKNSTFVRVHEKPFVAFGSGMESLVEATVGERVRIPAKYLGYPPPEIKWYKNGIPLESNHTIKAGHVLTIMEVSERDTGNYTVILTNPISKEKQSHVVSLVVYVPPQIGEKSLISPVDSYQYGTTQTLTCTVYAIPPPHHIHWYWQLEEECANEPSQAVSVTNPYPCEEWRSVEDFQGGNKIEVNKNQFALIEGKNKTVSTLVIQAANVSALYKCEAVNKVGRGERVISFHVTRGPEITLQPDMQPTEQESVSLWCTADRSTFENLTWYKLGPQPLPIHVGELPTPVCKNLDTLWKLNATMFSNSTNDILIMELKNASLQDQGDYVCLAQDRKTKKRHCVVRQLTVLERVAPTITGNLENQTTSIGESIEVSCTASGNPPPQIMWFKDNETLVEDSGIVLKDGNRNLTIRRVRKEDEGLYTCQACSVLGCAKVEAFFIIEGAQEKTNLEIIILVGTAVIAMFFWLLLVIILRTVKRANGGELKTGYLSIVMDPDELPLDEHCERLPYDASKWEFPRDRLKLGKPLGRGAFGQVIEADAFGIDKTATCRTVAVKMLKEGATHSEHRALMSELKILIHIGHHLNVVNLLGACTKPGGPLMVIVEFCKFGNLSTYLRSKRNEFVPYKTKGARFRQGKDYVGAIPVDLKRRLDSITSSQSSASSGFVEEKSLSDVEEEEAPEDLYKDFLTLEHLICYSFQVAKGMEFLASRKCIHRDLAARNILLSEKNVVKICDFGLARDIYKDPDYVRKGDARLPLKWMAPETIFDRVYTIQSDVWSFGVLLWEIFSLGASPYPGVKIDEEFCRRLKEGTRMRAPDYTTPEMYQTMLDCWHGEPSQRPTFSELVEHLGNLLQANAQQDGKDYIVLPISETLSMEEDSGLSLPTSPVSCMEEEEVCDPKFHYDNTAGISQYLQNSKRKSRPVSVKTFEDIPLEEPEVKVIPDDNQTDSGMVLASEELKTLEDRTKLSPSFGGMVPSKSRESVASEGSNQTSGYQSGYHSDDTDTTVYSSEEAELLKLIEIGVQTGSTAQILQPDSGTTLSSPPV

IC50 [µM] | Structure (SMILES)
> 10 | Nc1cc(-c2ccc(NC(=O)Nc3cccc(C(F)(F)F)c3)cc2)on1
> 10 | CC(C)(C)c1cc(NC(=O)Nc2ccc(-c3cc(N)no3)cc2)no1

From ChEMBL document CHEMBL3808391, “Evolution of a New Class of VEGFR-2 Inhibitors from Scaffold Morphing and Redesign” (ACS Med Chem Lett, 2016)
